Measurements: patent US12070489B2, “Method of treating cancer with a cancer therapy in combination with another therapeutic agent” (Rappaport Family Institute for Research in the Medical …, priority 2018, dated 2024)

Legend:
IL-6 = IL-6 quantification in plasma by ELISA after DOX; format: in vivo; conditions: naive female BALB/c mice, 240 μg DOX IP, one day after injection
Procedure: For determination of IL-6 expression following DOX treatment, 7 weeks old naïve female BALB/c mice (n=3) were IP injected with 240 μg DOX. Control mice (n=3) were left untreated. One day after the injection, mice were bled by cardiac puncture and blood was collected into EDTA-coated tubes. […] Supernatants (representing the plasma samples) were collected and the level of IL-6 in the plasma was determined by ELISA (IL-6 Quantikine ELISA Kit, R&D systems) according to the manufacturer's instruction.
To investigate the effect of chemotherapy on the level of IL-6 in the circulation, naïve 7-weeks old female BALB/c mice were IP injected with 240 μg DOX (doxorubicin, Adriamycin™) or were left untreated (control mice). One day after the injection, the level of IL-6 in the plasma was determined by ELISA.

circulating factors = experiment: Mouse L308 Array screen of plasma from naive mice treated with FOLFOX or Paclitaxel chemotherapy; format: in vivo; conditions: circulating level, BALB/c mice
Procedure: Determination of proteins expression using protein arrays was performed according to the manufacturer's instructions.
To identify host-derived circulating factors whose levels change in response to chemotherapy, a protein array-based screens were performed using plasma from naïve (non-tumor bearing) mice that were treated with different chemotherapy types. The use of naïve mice allows identification of factors specifically generated by the host in response to chemotherapy, independent of tumor presence. […] Control mice (n=5) were injected with vehicle control. Twenty-four hours after treatment administration, mice were sacrificed, plasma was isolated and pooled per group. […] These factors, and their respective fold changes in response to each chemotherapy type (Paclitaxel™, FOLFOX™), are listed in Table 5.

COc1cccc2c1C(=O)c1c(O)c3c(c(O)c1C2=O)C[C@@](O)(C(=O)CO)C[C@@H]3O[C@H]1C[C@H](N)[C@H](O)[C@H](C)O1 [DOX, doxorubicin]
increase of plasma level of IL-6 compared to control (IL-6): 22 fold

CC(=O)O[C@H]1C(=O)[C@@]2(C)[C@H]([C@H](OC(=O)c3ccccc3)[C@]3(O)C[C@H](OC(=O)[C@H](O)[C@@H](NC(=O)c4ccccc4)c4ccccc4)C(C)=C1C3(C)C)[C@]1(OC(C)=O)CO[C@@H]1C[C@@H]2O [Paclitaxel, paclitaxel]
Fold change CRG-2 (chemotherapy-treated vs control) (circulating factors): >10 fold | Fold change CRP (chemotherapy-treated vs control) (circulating factors): >10 fold | Fold change CXCL14/BRAK (chemotherapy-treated vs control) (circulating factors): 2.6 fold | Fold change CXCL16 (chemotherapy-treated vs control) (circulating factors): 4.4 fold | Fold change CXCR2/IL-8 RB (chemotherapy-treated vs control) (circulating factors): 2.0 fold | Fold change CXCR6 (chemotherapy-treated vs control) (circulating factors): 3.6 fold | Fold change Cardiotrophin-1 (chemotherapy-treated vs control) (circulating factors): >10 fold | Fold change Cripto (chemotherapy-treated vs control) (circulating factors): >10 fold | Fold change Dkk-3 (chemotherapy-treated vs control) (circulating factors): >10 fold | Fold change Endocan (chemotherapy-treated vs control) (circulating factors): 4.4 fold | Fold change Endostatin (chemotherapy-treated vs control) (circulating factors): 4.9 fold | Fold change Eotaxin-2 (chemotherapy-treated vs control) (circulating factors): 3.4 fold | Fold change Erythropoietin (EPO) (chemotherapy-treated vs control) (circulating factors): 3.9 fold | Fold change Frizzled-6 (chemotherapy-treated vs control) (circulating factors): 2.2 fold | Fold change Frizzled-7 (chemotherapy-treated vs control) (circulating factors): 6.1 fold | Fold change GITR (chemotherapy-treated vs control) (circulating factors): >10 fold | Fold change GM-CSF (chemotherapy-treated vs control) (circulating factors): 2.4 fold | Fold change IGFBP-1 (chemotherapy-treated vs control) (circulating factors): >10 fold | Fold change IL-1 R4/ST2 (chemotherapy-treated vs control) (circulating factors): 1.9 fold | Fold change IL-1 alpha (chemotherapy-treated vs control) (circulating factors): >10 fold | Fold change IL-3 R alpha (chemotherapy-treated vs control) (circulating factors): >10 fold | Fold change IL-7 R alpha (chemotherapy-treated vs control) (circulating factors): 8.8 fold | Fold change IL-9 R (chemotherapy-treated vs control) (circulating factors): 5.7 fold | Fold change IL-12 p70 (chemotherapy-treated vs control) (circulating factors): >10 fold | Fold change IL-15 (chemotherapy-treated vs control) (circulating factors): 2.5 fold | Fold change IL-15 R alpha (chemotherapy-treated vs control) (circulating factors): 3.4 fold | Fold change IL-17R (chemotherapy-treated vs control) (circulating factors): 2.6 fold | Fold change IL-18 R alpha/IL-1 R5 (chemotherapy-treated vs control) (circulating factors): >10 fold | Fold change IL-20 (chemotherapy-treated vs control) (circulating factors): >10 fold | Fold change IL-23 R (chemotherapy-treated vs control) (circulating factors): 1.8 fold | Fold change IL-27 (chemotherapy-treated vs control) (circulating factors): 2.0 fold | Fold change IL-28/IFN-lambda (chemotherapy-treated vs control) (circulating factors): 5.4 fold | Fold change IL-31 (chemotherapy-treated vs control) (circulating factors): >10 fold | Fold change LIF (chemotherapy-treated vs control) (circulating factors): >10 fold | Fold change LIX (chemotherapy-treated vs control) (circulating factors): >10 fold | Fold change LRP-6 (chemotherapy-treated vs control) (circulating factors): >10 fold | Fold change Lungkine (chemotherapy-treated vs control) (circulating factors): 2.0 fold | Fold change Lymphotoxin beta R/TNFRSF3 (chemotherapy-treated vs control) (circulating factors): 1.6 fold | Fold change M-CSF (chemotherapy-treated vs control) (circulating factors): 1.8 fold | Fold change MAdCAM-1 (chemotherapy-treated vs control) (circulating factors): >10 fold | Fold change MCP-1 (chemotherapy-treated vs control) (circulating factors): >10 fold | Fold change MIP-1 gamma (chemotherapy-treated vs control) (circulating factors): >10 fold | Fold change MIP-2 (chemotherapy-treated vs control) (circulating factors): 3.1 fold | Fold change MMP-9 (chemotherapy-treated vs control) (circulating factors): 4.3 fold | Fold change P-Selectin (chemotherapy-treated vs control) (circulating factors): >10 fold | Fold change PF-4 (chemotherapy-treated vs control) (circulating factors): 3.6 fold | Fold change Prolactin (chemotherapy-treated vs control) (circulating factors): 4.1 fold | Fold change SDF-1 (chemotherapy-treated vs control) (circulating factors): >10 fold | Fold change Soggy-1 (chemotherapy-treated vs control) (circulating factors): 3.6 fold | Fold change TACI/TNFRSF13B (chemotherapy-treated vs control) (circulating factors): >10 fold | Fold change TARC (chemotherapy-treated vs control) (circulating factors): >10 fold | Fold change TCA-3 (chemotherapy-treated vs control) (circulating factors): 3.0 fold | Fold change TGF-beta 2 (chemotherapy-treated vs control) (circulating factors): 3.4 fold | Fold change TGF-beta RII (chemotherapy-treated vs control) (circulating factors): 2.2 fold | Fold change TNF-alpha (chemotherapy-treated vs control) (circulating factors): 2.8 fold | Fold change TNF-beta/TNFSF1B (chemotherapy-treated vs control) (circulating factors): 2.9 fold | Fold change TPO (chemotherapy-treated vs control) (circulating factors): >10 fold | Fold change TWEAK R/TNFRSF12 (chemotherapy-treated vs control) (circulating factors): >10 fold | Fold change Thrombospondin (chemotherapy-treated vs control) (circulating factors): >10 fold | Fold change Thymus Chemokine-1 (chemotherapy-treated vs control) (circulating factors): >10 fold | Fold change VEGFC (chemotherapy-treated vs control) (circulating factors): >10 fold | Fold change WISP-1/CCN4 (chemotherapy-treated vs control) (circulating factors): 3.7 fold
